The source of these data is patent publication US20140179664A1, “Heterocyclyl Pyrimidine Analogues As JAK Inhibitors” (Cellzome Limited, priority 2011, published 2014).

One test concerns the target T1, JAK3 (Homo sapiens, UniProt P52333).
T1 construct: endogenous in cells; host or cells: Molt4 (ATCC CRL-1582) and Ramos (ATCC CRL-1596), mixed lysate 1:2
T1 sequence (P52333 1-1124): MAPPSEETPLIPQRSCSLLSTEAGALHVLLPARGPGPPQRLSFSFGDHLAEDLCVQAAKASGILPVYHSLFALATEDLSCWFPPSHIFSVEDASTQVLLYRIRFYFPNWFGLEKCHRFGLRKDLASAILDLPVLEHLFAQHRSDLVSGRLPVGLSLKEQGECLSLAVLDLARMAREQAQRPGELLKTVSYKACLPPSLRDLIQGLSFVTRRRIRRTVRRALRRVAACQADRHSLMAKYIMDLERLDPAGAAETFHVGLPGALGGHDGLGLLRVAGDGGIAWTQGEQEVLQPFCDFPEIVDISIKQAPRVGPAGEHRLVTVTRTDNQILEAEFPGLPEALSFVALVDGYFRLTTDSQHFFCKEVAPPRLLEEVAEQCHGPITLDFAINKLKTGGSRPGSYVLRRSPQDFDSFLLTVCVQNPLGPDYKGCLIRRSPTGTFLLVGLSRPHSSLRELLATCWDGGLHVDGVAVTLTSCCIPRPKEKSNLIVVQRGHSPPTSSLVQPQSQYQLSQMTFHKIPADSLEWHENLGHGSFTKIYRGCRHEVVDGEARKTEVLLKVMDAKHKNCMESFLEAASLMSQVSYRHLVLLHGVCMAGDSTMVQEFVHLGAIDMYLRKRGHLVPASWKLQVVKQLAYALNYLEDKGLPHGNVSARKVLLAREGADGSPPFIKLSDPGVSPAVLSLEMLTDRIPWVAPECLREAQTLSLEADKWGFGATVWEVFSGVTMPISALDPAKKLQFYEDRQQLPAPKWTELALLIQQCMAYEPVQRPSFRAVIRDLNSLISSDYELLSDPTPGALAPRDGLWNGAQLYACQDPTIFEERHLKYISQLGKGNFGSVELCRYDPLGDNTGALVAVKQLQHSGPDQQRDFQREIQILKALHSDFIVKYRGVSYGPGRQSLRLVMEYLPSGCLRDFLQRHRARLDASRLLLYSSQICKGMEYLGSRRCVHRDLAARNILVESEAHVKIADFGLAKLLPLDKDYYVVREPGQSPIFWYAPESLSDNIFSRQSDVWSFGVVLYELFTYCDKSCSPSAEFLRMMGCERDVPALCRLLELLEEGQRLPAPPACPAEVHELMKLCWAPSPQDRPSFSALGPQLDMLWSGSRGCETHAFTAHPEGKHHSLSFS
Briefly: Kinobeads assay, JAK3. Format: binding. The settings on record: mixed Molt4/Ramos lysate, read-out: Inhibition values (IC50) JAK3. The protocol: (§1) The compounds of the present invention as described in the previous examples were tested in a Kinobeads™ assay as described for ZAP-70 (WO-A 2007/137867). Briefly, test compounds (at various concentrations) and the affinity matrix with the immobilized aminopyrido-pyrimidine ligand 24 were added to cell lysate aliquots and allowed to bind to the proteins in the lysate sample. After the incubation time the beads with captured proteins were separated from the lysate. Bound proteins were then eluted and the presence of JAK1, JAK2, JAK3 and TYK2 was detected and quantified using specific antibodies in a dot blot procedure and the Odyssey infrared detection system. Dose response curves for individual kinases were generated and IC50 values calculated. Kinobeads™ assays for ZAP-70 (WO-A 2007/137867) and for kinase selectivity profiling (WO-A 2006/134056) have been previously described.
(§2) The affinity matrix was washed two times with 15 mL of lx DP buffer containing 0.2% NP40 (IGEPAL® CA-630, Sigma, #13021) and then resuspended in 1×DP buffer containing 0.2% NP40 (3% beads slurry).
(§3) 5×DP buffer: 250 mM Tris-HCl pH 7.4, 25% Glycerol, 7.5 mM MgCl2, 750 mM NaCl, 5 mM Na3VO4; filter the 5×DP buffer through a 0.22 μm filter and store in aliquots at −80° C. The 5×DP buffer is diluted with H2O to 1×DP buffer containing 1 mM DTT and 25 mM NaF.
(§4) Stock solutions of test compounds were prepared in DMSO. In a 96 well plate […] solution of diluted test compounds at 5 mM in DMSO were prepared. Starting with this solution a 1:3 dilution series (9 steps) was prepared. For control experiments (no test compound) a buffer containing 2% DMSO was used.
(§5) Molt4 cells (ATCC catalogue number CRL-1582) and Ramos cells (ATCC catalogue number CRL-1596) were grown in 1 L Spinner flasks (Integra Biosciences, #182101) in suspension in RPMI 1640 medium (Invitrogen, #21875-034) supplemented with 10% Fetal Bovine Serum (Invitrogen) at a density between 0.15×10^6 and 1.2×10^6 cells/mL. Cells were harvested by centrifugation, washed once with 1×PBS buffer (Invitrogen, #14190-094) and cell pellets were frozen in liquid nitrogen and subsequently stored at −80° C. Cells were homogenized in a Potter S homogenizer in lysis buffer: 50 mM Tris-HCl, 0.8% NP40, 5% glycerol, 150 mM NaCl, 1.5 mM MgCl2, 25 mM NaF, 1 mM sodium vanadate, 1 mM DTT, pH 7.5. One complete EDTA-free tablet (protease inhibitor cocktail, Roche Diagnostics, 1873580) per 25 mL buffer was added. The material was dounced 10 times using a mechanized POTTER S, transferred to 50 mL falcon tubes, incubated for 30 minutes on ice and spun down for 10 minutes at 20,000 g at 4° C. (10,000 rpm in Sorvall SLA600, precooled). The supernatant was transferred to an ultracentrifuge (UZ)-polycarbonate tube (Beckmann, 355654) and spun for 1 hour at 100.000 g at 4° C. (33.500 rpm in Ti50.2, precooled). The supernatant was transferred again to a fresh 50 mL falcon tube, the protein concentration was determined by a Bradford assay (BioRad) and samples containing 50 mg of protein per aliquot were prepared. The samples were immediately used for experiments or frozen in liquid nitrogen and stored frozen at −80° C.
(§6) Cell lysate (approximately 50 mg protein per plate) was thawed in a water bath at room temperature and then stored on ice. To the thawed cell lysate 1×DP 0.8% NP40 buffer containing protease inhibitors (1 tablet for 25 mL buffer; EDTA-free protease inhibitor cocktail; Roche Diagnostics 1873580) was added in order to reach a final protein concentration of 10 mg/mL total protein. The diluted cell lysate was stored on ice. Mixed Molt4/Ramos lysate was prepared by combining one volume of Molt4 lysate and two volumes of Ramos lysate (ratio 1:2).
(§7) To a 96 well filter plate (Multiscreen HTS, BV Filter Plates, Millipore #MSBVN1250) were added per well: 100 μL affinity matrix (3% beads slurry), […], of compound solution, and 50 μL of diluted lysate. […]

The target of another test is T2, JAK2 (Homo sapiens, UniProt O60674).
T2 construct: endogenous in cells; host or cells: Molt4 (ATCC CRL-1582) and Ramos (ATCC CRL-1596), mixed lysate 1:2
T2 sequence (O60674 whole entry): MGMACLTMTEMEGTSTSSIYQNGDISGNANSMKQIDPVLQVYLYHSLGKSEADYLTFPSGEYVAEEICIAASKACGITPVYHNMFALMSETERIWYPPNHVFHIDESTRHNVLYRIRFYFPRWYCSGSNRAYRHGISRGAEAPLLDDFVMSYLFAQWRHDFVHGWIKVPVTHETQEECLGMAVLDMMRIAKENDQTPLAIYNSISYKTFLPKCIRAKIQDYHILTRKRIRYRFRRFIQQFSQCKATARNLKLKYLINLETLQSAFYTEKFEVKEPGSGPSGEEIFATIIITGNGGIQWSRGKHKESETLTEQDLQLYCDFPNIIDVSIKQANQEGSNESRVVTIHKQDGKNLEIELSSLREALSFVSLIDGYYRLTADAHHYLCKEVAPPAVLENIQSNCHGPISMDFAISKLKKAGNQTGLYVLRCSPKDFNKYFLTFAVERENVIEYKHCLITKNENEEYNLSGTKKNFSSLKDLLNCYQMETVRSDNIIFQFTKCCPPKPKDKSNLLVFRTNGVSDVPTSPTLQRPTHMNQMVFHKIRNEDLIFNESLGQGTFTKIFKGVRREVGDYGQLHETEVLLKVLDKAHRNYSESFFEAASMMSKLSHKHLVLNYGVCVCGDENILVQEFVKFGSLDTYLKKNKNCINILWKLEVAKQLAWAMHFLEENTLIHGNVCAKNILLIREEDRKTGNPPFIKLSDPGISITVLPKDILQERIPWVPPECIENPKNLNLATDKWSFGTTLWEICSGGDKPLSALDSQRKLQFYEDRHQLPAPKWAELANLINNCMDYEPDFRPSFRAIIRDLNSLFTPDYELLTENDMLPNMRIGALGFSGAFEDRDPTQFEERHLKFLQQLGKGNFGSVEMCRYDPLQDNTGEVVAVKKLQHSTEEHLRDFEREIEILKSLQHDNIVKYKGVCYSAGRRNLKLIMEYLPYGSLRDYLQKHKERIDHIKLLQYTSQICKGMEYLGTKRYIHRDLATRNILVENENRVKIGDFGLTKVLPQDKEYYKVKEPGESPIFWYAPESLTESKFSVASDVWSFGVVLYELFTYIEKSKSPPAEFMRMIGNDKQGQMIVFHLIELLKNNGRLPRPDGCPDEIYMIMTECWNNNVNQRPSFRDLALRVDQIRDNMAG
Description: Kinobeads assay, JAK2. Type of test: binding. The settings on record: mixed Molt4/Ramos lysate, read-out: Inhibition values (IC50) JAK2. The protocol:
as §1, §2, §3, §4, §5, §6, §7

By IC50 is commonly meant the point on the concentration scale where inhibition reaches its midpoint. Regarding `NC(=O)Cn1cc(Nc2ncc(Cl)c(NC(CO)c3cc(F)ccc3F)n2)cn1` (stereo not shown) [Compound 132], the results for the IC50 on JAK3 and on JAK2 were less than 100 nM and 100 to 1000 nM, respectively.

For `Cn1cc(Nc2ncc(Cl)c(N[C@H](CO)c3cc(F)cc(-c4cnn(C)c4)c3)n2)cn1` [Compound 137], the figures for the IC50 at JAK3 and on JAK2 were 100 to 1000 nM and 1000 to 10000 nM, respectively.

On to `Cn1cc(Nc2ncc(Cl)c(N[C@H](CO)c3cc(F)cc(F)c3)n2)cn1` [Compound 142], for which the IC50 is less than 100 nM at JAK3 and 100 to 1000 nM on JAK2.

In the case of `COc1cccc([C@@H](CO)Nc2nc(Nc3cnn(C(C)C)c3)ncc2Cl)c1` [Compound 106], the IC50 fell in the range of 100 to 1000 nM on JAK3 and 1000 to 10000 nM on JAK2.

`Cc1cnc(Nc2cnn(CC(F)F)c2)nc1N[C@H](CO)c1cc(F)ccc1F` [Compound 166]: the IC50 fell in the range of 100 to 1000 nM on JAK3 and 1000 to 10000 nM on JAK2.

In the case of `CNC(=O)Cn1cc(Nc2ncc(Cl)c(N[C@H](CO)c3cc(F)cc(-c4cnn(C)c4)c3)n2)cn1` [Compound 156], the IC50 is less than 100 nM at JAK3 and 1000 to 10000 nM on JAK2.

For `CNC(=O)Cn1cc(Nc2ncc(Cl)c(NC(CO)c3ccccc3Cl)n2)cn1` (stereo not shown) [Compound 119], the IC50 was less than 100 nM on JAK3 and 1000 to 10000 nM at JAK2.

For the compound `Cc1cnc(Nc2cnn(C)c2)nc1N[C@H](CO)c1cc(F)ccc1F` [Compound 163], the IC50 at JAK3 was less than 100 nM; at JAK2, 100 to 1000 nM.

Take `NC(=O)Cn1cc(Nc2ncc(F)c(N[C@H](CO)c3ccccc3)n2)cn1` [Compound 108]: the IC50 on JAK3 was 100 to 1000 nM; at JAK2, no less than 10000 nM.

As to `CCn1cc(Nc2ncc(Cl)c(N[C@H](CO)c3ccccc3OC)n2)cn1` [Compound 95], the IC50 was less than 100 nM on JAK3 and 100 to 1000 nM at JAK2.

For the compound `CNC(=O)Cn1cc(Nc2ncc(Cl)c(N[C@H](CO)c3cc(F)cc(F)c3)n2)cn1` [Compound 145], the IC50 at JAK3 is less than 100 nM; at JAK2, 100 to 1000 nM.

Turning to `CNC(=O)Cn1cc(Nc2ncc(F)c(N[C@H](CO)c3cccc(-c4cnn(C)c4)c3)n2)cn1` [Compound 155], the IC50 on JAK3 is 100 to 1000 nM; at JAK2, no less than 10000 nM.

For `CNC(=O)Cn1cc(Nc2ncc(Cl)c(NC(CO)c3cc(F)ccc3F)n2)cn1` (stereo not shown) [Compound 130], the IC50 was less than 100 nM on JAK3 and 100 to 1000 nM at JAK2.

With `CNC(=O)Cn1cc(Nc2ncc(Cl)c(N[C@H](CO)c3ccccc3F)n2)cn1` [Compound 100], the values for the IC50 on JAK3 and on JAK2 were less than 100 nM and 1000 to 10000 nM, respectively.

For `CC(C)OCCn1cc(Nc2ncc(Cl)c(N[C@H](CO)c3ccccc3)n2)cn1` [Compound 114], the IC50 was less than 100 nM at JAK3 and 1000 to 10000 nM at JAK2.

Turning to `CNC(=O)Cn1cc(Nc2ncc(F)c(N[C@H](CO)c3cc(F)cc(F)c3)n2)cn1` [Compound 161], the IC50 on JAK3 was less than 100 nM; at JAK2 it was 1000 to 10000 nM.

On to `Cn1cc(Nc2ncc(Cl)c(N[C@H](CO)c3ccccc3)n2)cn1` [Compound 4], for which the results for the IC50 on JAK3 and at JAK2 were less than 100 nM and 1000 to 10000 nM, respectively.
